What is called IC50 is the concentration needed to halve the response being measured. A high value points to weaker potency.

Where only a bound is given, the exact number is not on record here.

The source of these data is ChEMBL document CHEMBL4304789, “Design, Synthesis, and Biological Evaluation of 2,4-Imidazolinedione Derivatives as HDAC6 Isoform-Selective Inhibitors” (ACS Med Chem Lett, 2019).

The target of the first test is Histone deacetylase 1 (Homo sapiens, UniProt Q13547). Description: Inhibition of HDAC1 (unknown origin) using Ac-LeuGlyLys(Ac)-AMC as substrate preincubated for 5 mins followed by substrate addition and measured after 60 mins by fluorescence based assay.
Chain of Histone deacetylase 1 (Q13547 whole entry): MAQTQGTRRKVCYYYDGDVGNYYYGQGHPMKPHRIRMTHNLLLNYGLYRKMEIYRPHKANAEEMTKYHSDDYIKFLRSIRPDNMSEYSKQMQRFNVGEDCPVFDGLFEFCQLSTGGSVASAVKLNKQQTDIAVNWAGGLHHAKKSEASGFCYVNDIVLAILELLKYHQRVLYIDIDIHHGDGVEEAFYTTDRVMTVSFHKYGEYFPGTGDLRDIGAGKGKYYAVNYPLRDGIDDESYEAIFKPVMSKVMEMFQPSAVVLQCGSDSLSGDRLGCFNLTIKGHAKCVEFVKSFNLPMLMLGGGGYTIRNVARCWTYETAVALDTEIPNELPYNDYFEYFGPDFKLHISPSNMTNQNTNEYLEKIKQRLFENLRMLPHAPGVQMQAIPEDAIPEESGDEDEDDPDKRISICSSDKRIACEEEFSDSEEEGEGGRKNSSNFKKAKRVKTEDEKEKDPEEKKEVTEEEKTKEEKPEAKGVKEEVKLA
Conditions: not given
Compound `O=C(CCC1C(=O)N(c2ccc(Cl)cc2)C(=O)N1Cc1ccc(Br)cc1)Nc1ccc(C(=O)NO)cc1` (stereo unspecified) gave an IC50 of 194 nM.

For `O=C(CCC1C(=O)N(c2ccc(Cl)cc2)C(=O)N1Cc1ccccc1)Nc1ccc(C(=O)NO)cc1` (stereo unspecified), the IC50 is 111 nM.

In the case of `Cc1ccc(CN2C(=O)N(c3ccc(Cl)cc3)C(=O)C2CCC(=O)Nc2ccc(C(=O)NO)cc2)cc1` (stereo unspecified), the half-maximal inhibitory concentration (IC50) was determined as 959 nM.

For the next test, the target named is T1, Protein deacetylase HDAC6 (Homo sapiens, UniProt Q9UBN7).
T1 sequence (Q9UBN7 whole entry): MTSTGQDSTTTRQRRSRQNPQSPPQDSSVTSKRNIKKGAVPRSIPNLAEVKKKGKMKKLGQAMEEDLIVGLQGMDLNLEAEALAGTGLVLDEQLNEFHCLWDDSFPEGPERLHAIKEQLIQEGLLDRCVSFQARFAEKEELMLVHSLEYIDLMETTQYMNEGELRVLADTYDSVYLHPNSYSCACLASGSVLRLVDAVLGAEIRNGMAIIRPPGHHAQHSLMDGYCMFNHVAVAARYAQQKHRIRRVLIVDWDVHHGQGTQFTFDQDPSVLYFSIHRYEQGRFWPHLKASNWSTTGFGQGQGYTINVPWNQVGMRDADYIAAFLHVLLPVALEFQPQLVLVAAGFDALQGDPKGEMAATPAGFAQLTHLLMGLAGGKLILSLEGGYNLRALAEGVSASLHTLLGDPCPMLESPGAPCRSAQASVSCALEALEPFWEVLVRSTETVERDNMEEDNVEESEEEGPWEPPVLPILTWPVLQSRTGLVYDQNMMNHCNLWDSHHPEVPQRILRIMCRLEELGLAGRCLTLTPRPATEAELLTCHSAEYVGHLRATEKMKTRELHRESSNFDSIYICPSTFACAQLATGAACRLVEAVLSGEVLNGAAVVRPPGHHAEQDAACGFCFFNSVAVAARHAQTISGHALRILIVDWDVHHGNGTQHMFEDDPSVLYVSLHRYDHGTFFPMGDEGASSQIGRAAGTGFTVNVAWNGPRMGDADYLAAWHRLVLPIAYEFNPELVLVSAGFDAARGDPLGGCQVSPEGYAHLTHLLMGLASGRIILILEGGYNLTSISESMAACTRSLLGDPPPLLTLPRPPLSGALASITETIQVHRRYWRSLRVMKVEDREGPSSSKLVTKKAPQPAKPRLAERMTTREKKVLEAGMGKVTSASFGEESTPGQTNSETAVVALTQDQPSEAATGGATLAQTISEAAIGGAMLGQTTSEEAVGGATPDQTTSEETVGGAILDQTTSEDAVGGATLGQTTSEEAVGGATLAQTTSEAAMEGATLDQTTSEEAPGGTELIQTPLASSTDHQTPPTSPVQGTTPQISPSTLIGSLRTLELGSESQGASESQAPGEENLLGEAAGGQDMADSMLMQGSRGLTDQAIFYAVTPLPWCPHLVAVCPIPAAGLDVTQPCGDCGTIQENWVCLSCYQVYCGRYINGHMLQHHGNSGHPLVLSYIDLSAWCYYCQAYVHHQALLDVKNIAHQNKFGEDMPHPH
Briefly: Inhibition of HDAC6 (unknown origin) using Ac-LeuGlyLys(Ac)-AMC as substrate preincubated for 5 mins followed by substrate addition and measured after 60 mins by fluorescence based assay.
Conditions: not given
With `O=C(CCC1C(=O)N(c2ccc(Cl)cc2)C(=O)N1Cc1ccc(Br)cc1)Nc1ccc(C(=O)NO)cc1` (stereo unspecified), the 50% inhibitory concentration (IC50) amounted to 9.7 nM.

For `O=C(CCC1C(=O)N(c2ccc(Cl)cc2)C(=O)N1Cc1ccccc1)Nc1ccc(C(=O)NO)cc1` (stereo unspecified), the midpoint of inhibition, the IC50, lay at 7.6 nM.

On to `Cc1ccc(CN2C(=O)N(c3ccc(Cl)cc3)C(=O)C2CCC(=O)Nc2ccc(C(=O)NO)cc2)cc1` (stereo unspecified), for which inhibition was half-maximal at 4.4 nM (IC50).

For a further test, the target named is Histone deacetylase 4 (Homo sapiens, UniProt P56524). Briefly: Inhibition of HDAC4 (unknown origin) using Ac-LeuGlyLys(tfa)-AMC as substrate preincubated for 5 mins followed by substrate addition and measured after 60 mins by fluorescence based assay.
Chain of Histone deacetylase 4 (P56524 whole entry): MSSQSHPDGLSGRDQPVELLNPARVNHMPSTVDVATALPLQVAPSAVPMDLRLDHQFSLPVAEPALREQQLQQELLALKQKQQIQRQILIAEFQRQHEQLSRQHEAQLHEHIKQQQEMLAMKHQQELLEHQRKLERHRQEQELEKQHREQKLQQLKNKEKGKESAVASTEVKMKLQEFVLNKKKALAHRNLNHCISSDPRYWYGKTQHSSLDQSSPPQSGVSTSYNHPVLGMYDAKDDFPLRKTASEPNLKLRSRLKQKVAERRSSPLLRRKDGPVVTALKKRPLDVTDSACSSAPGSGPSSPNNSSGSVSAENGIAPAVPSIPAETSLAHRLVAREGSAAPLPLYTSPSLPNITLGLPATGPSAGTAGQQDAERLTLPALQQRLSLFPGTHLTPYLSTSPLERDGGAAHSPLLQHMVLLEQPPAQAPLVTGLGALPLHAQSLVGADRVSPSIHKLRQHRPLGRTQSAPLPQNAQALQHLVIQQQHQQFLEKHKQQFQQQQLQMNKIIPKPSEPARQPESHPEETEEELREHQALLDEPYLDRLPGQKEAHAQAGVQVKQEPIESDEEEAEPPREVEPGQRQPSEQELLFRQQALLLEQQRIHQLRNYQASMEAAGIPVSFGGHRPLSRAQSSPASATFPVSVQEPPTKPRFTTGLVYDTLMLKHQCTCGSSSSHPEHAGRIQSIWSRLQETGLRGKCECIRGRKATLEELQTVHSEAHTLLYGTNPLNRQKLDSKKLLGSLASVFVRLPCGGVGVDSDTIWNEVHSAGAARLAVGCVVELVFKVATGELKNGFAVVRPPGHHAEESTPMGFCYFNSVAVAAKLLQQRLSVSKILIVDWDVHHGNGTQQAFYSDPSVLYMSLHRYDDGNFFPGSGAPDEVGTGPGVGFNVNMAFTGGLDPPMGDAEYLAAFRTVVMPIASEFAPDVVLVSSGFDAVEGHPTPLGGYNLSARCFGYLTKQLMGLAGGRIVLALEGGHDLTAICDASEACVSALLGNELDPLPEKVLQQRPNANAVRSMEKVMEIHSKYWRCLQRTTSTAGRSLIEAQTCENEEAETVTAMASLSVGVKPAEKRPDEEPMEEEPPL
Conditions: not given
`O=C(CCC1C(=O)N(c2ccc(Cl)cc2)C(=O)N1Cc1ccc(Br)cc1)Nc1ccc(C(=O)NO)cc1` (stereo unspecified) had an IC50 of more than 100000 nM.

On to `O=C(CCC1C(=O)N(c2ccc(Cl)cc2)C(=O)N1Cc1ccccc1)Nc1ccc(C(=O)NO)cc1` (stereo unspecified), for which the IC50 came out at 27000 nM.

In turn, `Cc1ccc(CN2C(=O)N(c3ccc(Cl)cc3)C(=O)C2CCC(=O)Nc2ccc(C(=O)NO)cc2)cc1` (stereo unspecified) returned a half-inhibitory concentration (IC50) of more than 100000 nM.

In another test the target is T2, Histone deacetylase 7 (Homo sapiens, UniProt Q8WUI4).
T2 sequence (Q8WUI4 whole entry): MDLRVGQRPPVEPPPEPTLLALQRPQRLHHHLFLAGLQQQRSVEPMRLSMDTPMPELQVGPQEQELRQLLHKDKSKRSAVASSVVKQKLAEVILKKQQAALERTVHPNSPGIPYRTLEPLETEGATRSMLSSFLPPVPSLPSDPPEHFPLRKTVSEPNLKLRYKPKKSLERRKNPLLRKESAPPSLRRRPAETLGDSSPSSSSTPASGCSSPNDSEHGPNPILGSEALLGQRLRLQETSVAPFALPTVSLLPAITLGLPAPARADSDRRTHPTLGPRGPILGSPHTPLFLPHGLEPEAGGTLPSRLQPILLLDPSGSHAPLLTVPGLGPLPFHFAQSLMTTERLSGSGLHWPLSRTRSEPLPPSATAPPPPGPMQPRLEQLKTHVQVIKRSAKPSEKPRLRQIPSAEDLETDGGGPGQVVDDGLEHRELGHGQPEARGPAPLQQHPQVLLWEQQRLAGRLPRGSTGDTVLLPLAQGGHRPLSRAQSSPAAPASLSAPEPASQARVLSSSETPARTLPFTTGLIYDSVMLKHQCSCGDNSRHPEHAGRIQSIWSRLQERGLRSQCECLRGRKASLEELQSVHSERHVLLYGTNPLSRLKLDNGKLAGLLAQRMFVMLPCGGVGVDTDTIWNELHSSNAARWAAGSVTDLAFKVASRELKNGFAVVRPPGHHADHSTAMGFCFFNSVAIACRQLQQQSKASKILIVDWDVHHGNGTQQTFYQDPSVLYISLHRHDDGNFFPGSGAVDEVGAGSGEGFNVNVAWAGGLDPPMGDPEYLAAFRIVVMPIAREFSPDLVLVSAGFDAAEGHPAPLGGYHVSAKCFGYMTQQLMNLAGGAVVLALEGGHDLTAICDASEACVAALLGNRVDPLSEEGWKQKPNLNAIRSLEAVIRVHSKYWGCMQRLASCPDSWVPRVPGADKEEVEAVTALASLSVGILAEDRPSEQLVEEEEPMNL
Description: Inhibition of HDAC7 (unknown origin) using Ac-LeuGlyLys(tfa)-AMC as substrate preincubated for 5 mins followed by substrate addition and measured after 60 mins by fluorescence based assay.
Conditions: not given
`O=C(CCC1C(=O)N(c2ccc(Cl)cc2)C(=O)N1Cc1ccc(Br)cc1)Nc1ccc(C(=O)NO)cc1` (stereo unspecified) returned a half-maximal inhibitory concentration (IC50) of 6000 nM.

The compound `O=C(CCC1C(=O)N(c2ccc(Cl)cc2)C(=O)N1Cc1ccccc1)Nc1ccc(C(=O)NO)cc1` (stereo unspecified) had an IC50 of 8800 nM.

Turning to `Cc1ccc(CN2C(=O)N(c3ccc(Cl)cc3)C(=O)C2CCC(=O)Nc2ccc(C(=O)NO)cc2)cc1` (stereo unspecified), the IC50 was more than 100000 nM.

For a further test, the target named is T3, Histone deacetylase 8 (Homo sapiens, UniProt Q9BY41).
T3 sequence (Q9BY41 whole entry): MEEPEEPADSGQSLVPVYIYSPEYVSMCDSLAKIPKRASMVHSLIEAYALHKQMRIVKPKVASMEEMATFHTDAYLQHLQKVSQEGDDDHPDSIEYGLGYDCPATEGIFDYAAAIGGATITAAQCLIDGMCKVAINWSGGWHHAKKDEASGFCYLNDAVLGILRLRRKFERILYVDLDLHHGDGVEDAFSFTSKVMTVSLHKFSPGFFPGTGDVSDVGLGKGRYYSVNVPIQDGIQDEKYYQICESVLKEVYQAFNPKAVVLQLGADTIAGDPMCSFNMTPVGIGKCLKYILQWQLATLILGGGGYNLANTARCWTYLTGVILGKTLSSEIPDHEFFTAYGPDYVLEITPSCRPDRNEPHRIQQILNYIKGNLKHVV
Description: Inhibition of HDAC8 (unknown origin) using Ac-LeuGlyLys(tfa)-AMC as substrate preincubated for 5 mins followed by substrate addition and measured after 60 mins by fluorescence based assay.
Conditions: not given
Regarding `O=C(CCC1C(=O)N(c2ccc(Cl)cc2)C(=O)N1Cc1ccc(Br)cc1)Nc1ccc(C(=O)NO)cc1` (stereo unspecified), it took 6700 nM to reach half-maximal inhibition (IC50).

Compound `O=C(CCC1C(=O)N(c2ccc(Cl)cc2)C(=O)N1Cc1ccccc1)Nc1ccc(C(=O)NO)cc1` (stereo unspecified) came in with a half-maximal inhibitory concentration (IC50) of 3600 nM.

`Cc1ccc(CN2C(=O)N(c3ccc(Cl)cc3)C(=O)C2CCC(=O)Nc2ccc(C(=O)NO)cc2)cc1` (stereo unspecified) gave a half-maximal inhibitory concentration (IC50) of more than 100000 nM.

A further test has as its system RPMI-8226. Briefly: Antiproliferative activity against human RPMI8226 cells incubated for 48 hrs by MTT assay. The note with it: RPMI-8226, 48 h. The class given is functional, cell-based. (Tetrazolium dyes change colour on reduction, which living cells bring about.)
In turn, `O=C(CCC1C(=O)N(c2ccc(Cl)cc2)C(=O)N1Cc1ccc(Br)cc1)Nc1ccc(C(=O)NO)cc1` (stereo unspecified) yielded an IC50 of 360 nM.

In turn, `O=C(CCC1C(=O)N(c2ccc(Cl)cc2)C(=O)N1Cc1ccccc1)Nc1ccc(C(=O)NO)cc1` (stereo unspecified) showed an IC50 of 640 nM.

The compound `Cc1ccc(CN2C(=O)N(c3ccc(Cl)cc3)C(=O)C2CCC(=O)Nc2ccc(C(=O)NO)cc2)cc1` (stereo unspecified) had an IC50 of 230 nM.

The subject of the next test is HCT-116. Description: Antiproliferative activity against human HCT116 cells incubated for 48 hrs by MTT assay. The class given is functional, cell-based. The following applies: HCT-116, 48 h.
In turn, `O=C(CCC1C(=O)N(c2ccc(Cl)cc2)C(=O)N1Cc1ccc(Br)cc1)Nc1ccc(C(=O)NO)cc1` (stereo unspecified) yielded an IC50 of 1250 nM.

As for `O=C(CCC1C(=O)N(c2ccc(Cl)cc2)C(=O)N1Cc1ccccc1)Nc1ccc(C(=O)NO)cc1` (stereo unspecified), the IC50 turned out to be 2250 nM.

The compound `Cc1ccc(CN2C(=O)N(c3ccc(Cl)cc3)C(=O)C2CCC(=O)Nc2ccc(C(=O)NO)cc2)cc1` (stereo unspecified) came in with an IC50 of 830 nM.
